This is an account of results in patent publication US7888394B2, “Synthesis, polymorphs, and pharmaceutical formulation of FAAH inhibitors” (N.V. Organon, priority 2006, dated 2011).

Molecules are shown by their SMILES.

A short description of data set [1]: Particle size determination of KDS-4103 polymorphs (Malvern Mastersizer 2000 Hydro S, dispersed in hexane). The following applies: 1 minute sonication (47 kHz), 10,000 sweeps. The class given is physicochemical. The procedure: “Effective particle size,” as used herein refers to and is determined on the basis of the volume weight average particle size as measured by conventional particle size measuring techniques well known to those skilled in the art. Such techniques include, for example, sedimentation field flow fractionation, photon correlation spectroscopy, light scattering, laser diffraction and disc centrifugation. For the purposes of the compositions, formulations and methods described herein, effective particle size is the volume mass average particle size as determined using light scattering methods, e.g. Horiba LA-950. For example, an effective particle size of 5.9 μm means that 50% of the particles by weight are less than 5.9 μm and 50% of the particles by weight are greater than 5.9 μm.

Data set [2] is described as follows: Oral bioavailability determination of KDS-4103 polymorphs: plasma concentrations after oral administration of suspensions to rats. Format: in vivo. Conditions: oral gavage, 100 mg/mL suspension at 1 ml/kg.
Assay in data set [3]: as above
Conditions: for [KDS-4103] plasma concentration: oral gavage, 100 mg/mL suspension at 1 ml/kg. The class given is in vivo. The procedure: Animals were sacrificed at 30, 60 and 90 minutes post-dose in each group. Collection of K3EDTA was acheived via cardiac puncture.

Data set [4] relates to fatty acid amide hydrolase (FAAH). The following applies: cited from earlier work.

In the case of `NC(=O)c1cccc(-c2cccc(OC(=O)NC3CCCCC3)c2)c1` [KDS-4103 polymorph from ethanol], the “average effective average particle size” value in data set [1] (listed as KDS-4103 from ethanol) is given as “about 13.9 μm”. Besides, the “[KDS-4103] plasma concentration” value in data set [2] (time 0 minutes) is recorded as 0.00 ng/mL; in data set [3] (time 30 minutes post-dose), 9.62 ng/mL; in data set [3] (time 60 minutes post-dose), 12.60 ng/mL; in data set [3] (time 90 minutes post-dose), 10.74 ng/mL.

As to `NC(=O)c1cccc(-c2cccc(OC(=O)NC3CCCCC3)c2)c1` [KDS-4103], the “inhibition of FAAH activity” value in data set [4] is “potent and selective inhibitor of FAAH activity”.

Consider `NC(=O)c1cccc(-c2cccc(OC(=O)NC3CCCCC3)c2)c1` [KDS-4103 polymorph from acetonitrile], for which the “average effective average particle size” value in data set [1] (listed as KDS-4103 from acetonitrile) was “about 5.9 μm”. In addition, in data set [2] (rat, plasma, po, 100 mg/kg, [KDS-4103] plasma concentration), the concentration at 0 min came out at 0 ng/mL. The “[KDS-4103] plasma concentration” value in data set [3] (time 30 minutes post-dose) amounted to 196.06 ng/mL; in data set [3] (time 60 minutes post-dose), 58.95 ng/mL; in data set [3] (time 90 minutes post-dose), 105.36 ng/mL. Further, the “levels of the compound in circulation compared to the polymorph obtained from EtOH” value in data set [3] (oral suspension) is listed as “increased levels of the compound in circulation”. Moreover, the “bioavailability of the suspension” value in data set [3] (oral suspension, compared to polymorph from ethanol) is given as “increased bioavailability”.
